From patent US8513270B2, “Substituted heterocycles as Janus kinase inhibitors” (Incyte Corporation, priority 2006, dated 2013)
Structures can show the parent of a compound that is named as a salt.

What was measured:
[1] = molecular target: T1, human JAK3 (a.a. 781-1124) (Homo sapiens, UniProt P52333); assay: In vitro JAK kinase assay (HTRF), JAK3; format: biochemical; conditions: JAK3, 3 μM ATP; read-out: EXAMPLE A JAK2-JAK3 HTRF-2 IC50
T1 construct: JAK3 (a.a. 781-1124); His tag (N); made in house; host or cells: insect cells (baculovirus)
T1 sequence (P52333 781-1124): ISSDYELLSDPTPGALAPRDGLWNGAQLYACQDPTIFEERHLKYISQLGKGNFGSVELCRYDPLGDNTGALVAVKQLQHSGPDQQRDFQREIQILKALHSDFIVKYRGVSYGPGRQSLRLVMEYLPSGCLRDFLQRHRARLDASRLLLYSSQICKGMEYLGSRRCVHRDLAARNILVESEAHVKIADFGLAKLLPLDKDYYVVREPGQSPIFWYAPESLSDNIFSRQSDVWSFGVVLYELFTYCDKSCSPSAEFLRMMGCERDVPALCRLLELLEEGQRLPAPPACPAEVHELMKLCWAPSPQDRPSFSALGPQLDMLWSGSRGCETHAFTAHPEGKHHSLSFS
Protocol: (§1) Compounds herein were tested for inhibitory activity of JAK targets according to the following in vitro assay described in Park et al., Analytical Biochemistry 1999, 269, 94-104. The catalytic domains of human JAK1 (a.a. 837-1142), JAK2 (a.a. 828-1132) and JAK3 (a.a. 781-1124) with an N-terminal His tag were expressed using baculovirus in insect cells and purified. The catalytic activity of JAK1, JAK2 or JAK3 was assayed by measuring the phosphorylation of a biotinylated peptide. The phosphorylated peptide was detected by homogenous time resolved fluorescence (HTRF). IC50s of compounds were measured for each kinase in the reactions that contain the enzyme, ATP and 500 nM peptide in 50 mM Tris (pH 7.8) buffer with 100 mM NaCl, 5 mM DTT, and 0.1 mg/mL (0.01%) BSA. The ATP concentration in the reactions was 90 μM for JAK1, 30 μM for JAK2 and 3 μM for JAK3. Reactions were carried out at room temperature for 1 hr and then stopped with 20 μL 45 mM EDTA, 300 nM SA-APC, 6 nM Eu—Py20 in assay buffer (Perkin Elmer, Boston, Mass.). Binding to the Europium labeled antibody took place for 40 minutes and HTRF signal was measured on a Fusion plate reader (Perkin Elmer, Boston, Mass.).

[2] = molecular target: TF1-BCRABL1 cells (Homo sapiens, UniProt P00519); assay: ABL1 cell based assay: viability of ABL1-dependent cell line (CellTiter-Glo); conditions: 72 hours, cell viability; read-out: EXAMPLE F JAK2-TF1-BCRABL1 IC50
Sequence of TF1-BCRABL1 cells (P00519 whole entry, change not shown): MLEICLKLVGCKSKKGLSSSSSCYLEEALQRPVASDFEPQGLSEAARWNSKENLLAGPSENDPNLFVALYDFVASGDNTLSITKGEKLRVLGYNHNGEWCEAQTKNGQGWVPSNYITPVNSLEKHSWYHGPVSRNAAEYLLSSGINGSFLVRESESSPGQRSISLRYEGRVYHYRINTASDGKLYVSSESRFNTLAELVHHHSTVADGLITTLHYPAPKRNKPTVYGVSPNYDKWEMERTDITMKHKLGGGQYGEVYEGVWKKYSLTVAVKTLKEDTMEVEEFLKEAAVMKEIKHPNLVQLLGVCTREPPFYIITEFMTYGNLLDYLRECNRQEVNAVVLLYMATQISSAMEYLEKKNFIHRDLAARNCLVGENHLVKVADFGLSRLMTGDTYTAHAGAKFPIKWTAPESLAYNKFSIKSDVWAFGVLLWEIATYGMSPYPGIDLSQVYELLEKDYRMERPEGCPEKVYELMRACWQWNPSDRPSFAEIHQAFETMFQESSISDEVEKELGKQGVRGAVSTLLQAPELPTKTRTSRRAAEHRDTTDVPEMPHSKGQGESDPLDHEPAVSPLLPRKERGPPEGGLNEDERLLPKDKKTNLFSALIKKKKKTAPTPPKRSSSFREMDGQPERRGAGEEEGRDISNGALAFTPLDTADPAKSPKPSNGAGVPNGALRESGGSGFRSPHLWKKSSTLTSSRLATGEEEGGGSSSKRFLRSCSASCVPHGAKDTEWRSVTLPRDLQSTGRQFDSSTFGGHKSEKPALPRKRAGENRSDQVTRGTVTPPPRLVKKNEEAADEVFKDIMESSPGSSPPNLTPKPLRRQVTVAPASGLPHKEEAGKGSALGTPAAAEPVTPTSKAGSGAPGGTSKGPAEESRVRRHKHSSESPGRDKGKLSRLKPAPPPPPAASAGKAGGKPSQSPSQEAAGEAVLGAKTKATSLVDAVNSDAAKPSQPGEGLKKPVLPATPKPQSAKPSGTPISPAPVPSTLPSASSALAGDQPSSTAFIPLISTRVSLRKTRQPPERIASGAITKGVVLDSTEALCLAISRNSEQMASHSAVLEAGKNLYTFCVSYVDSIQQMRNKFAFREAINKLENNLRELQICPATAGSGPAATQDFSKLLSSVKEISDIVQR
Protocol: One or more compounds herein were tested for inhibitory activity of ABL1 targets according to at least one of the following cellular assays.
Cancer cell lines dependent on ABL1 kinase activity for proliferation and/or survival were plated at 3000 cells per well (96 well plate format) in RPMI 1640, and 10% FBS. Compounds were added to the cells in DMSO/media (final concentration 0.2% DMSO) and incubated for 72 hours at 37° C., 5% CO2. The effect of compound on cell viability was assessed using the CellTiter-Glo Luminescent Cell Viability Assay (Promega) followed by TopCount (Perkin Elmer, Boston, Mass.) quantitation. ABL1-dependent cell lines can include those naturally dependent on ABL1 activity or those engineered to be dependent on ABL1 activity (e.g. BaF/3 cells). The latter can be generated using wild-type ABL1 or mutant ABL1 (such as T315I ABL1) so that the activity of compounds can be assessed against different variants of the ABL1 kinase. Potential off-target effects of compounds were measured in parallel using a non-ABL1 driven cell line with the same assay readout. […] All experiments were performed in duplicate or greater.

[3] = molecular target: T2, human JAK1 (a.a. 837-1142) (Homo sapiens, UniProt P23458); assay: In vitro JAK kinase assay (HTRF), JAK1; format: biochemical; conditions: JAK1, 90 μM ATP; read-out: EXAMPLE A JAK2-JAK1 HTRF-2 IC50
T2 construct: human JAK1 (a.a. 837-1142); His tag (N); made in house; host or cells: insect cells (baculovirus)
T2 sequence (P23458 849-1154): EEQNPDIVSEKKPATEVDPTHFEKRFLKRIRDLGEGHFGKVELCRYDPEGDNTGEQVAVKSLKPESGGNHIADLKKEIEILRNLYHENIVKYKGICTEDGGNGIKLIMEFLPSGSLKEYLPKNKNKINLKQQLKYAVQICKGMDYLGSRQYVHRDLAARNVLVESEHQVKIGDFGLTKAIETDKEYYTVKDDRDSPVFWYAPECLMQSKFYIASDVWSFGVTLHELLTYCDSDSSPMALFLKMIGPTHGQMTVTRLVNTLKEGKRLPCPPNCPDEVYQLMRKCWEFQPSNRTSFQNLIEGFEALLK
Protocol: as §1

[4] = molecular target: T3, human JAK2 (a.a. 828-1132) (Homo sapiens, UniProt O60674); assay: In vitro JAK kinase assay (HTRF), JAK2; format: biochemical; conditions: JAK2, 30 μM ATP; read-out: EXAMPLE A HTS-JAK2 HTRF-2 IC50
T3 construct: JAK2 (a.a. 828-1132); His tag (N); made in house; host or cells: insect cells (baculovirus)
T3 sequence (O60674 828-1132): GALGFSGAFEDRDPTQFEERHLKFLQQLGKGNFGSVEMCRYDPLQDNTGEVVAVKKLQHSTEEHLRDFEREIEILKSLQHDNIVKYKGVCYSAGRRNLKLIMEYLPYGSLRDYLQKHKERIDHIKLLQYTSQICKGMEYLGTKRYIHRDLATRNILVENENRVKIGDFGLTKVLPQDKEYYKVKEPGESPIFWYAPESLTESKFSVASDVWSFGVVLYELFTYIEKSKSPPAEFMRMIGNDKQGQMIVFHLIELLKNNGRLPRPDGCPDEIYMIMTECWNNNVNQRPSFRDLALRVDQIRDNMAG
Protocol: as §1

Cc1ncc(NC(=O)c2cc(-n3cnc(C=O)c3)cc(C(F)(F)F)c2)cc1-c1ccc2c(c1)[nH]c1ncncc12 [Example 74, 3-(4-formyl-1H-imidazol-1-yl)-N-[6-methyl-5-(9H-pyrimido[4,5-b]indol-7-yl)pyridin-3-yl]-5-(trifluoromethyl)benzamide bis(trifluoroacetate)]
≤ 500 nM: IC50 [1] | GI50 [2] | IC50 [3] | IC50 [4]

Cc1ccc(NC(=O)c2cc(N3CCOCC3)cc(C(F)(F)F)c2)cc1-c1ccc2c(c1)[nH]c1ncncc12 [Example 27, N-[4-methyl-3-(9H-pyrimido-[4,5-b]indol-7-yl)phenyl]-3-morpholin-4-yl-5-(trifluoromethyl)benzamide]
≤ 500 nM: IC50 [1] | GI50 [2] | IC50 [3] | IC50 [4]

Cc1ccc(NC(=O)c2cc(N(C)C)cc(C(F)(F)F)c2)cc1-c1ccc2c(c1)[nH]c1ncncc12 [Example 36, 3-(dimethylamino)-N-[4-methyl-3-(9H-pyrimido[4,5-b]-indol-7-yl)phenyl]-5-(trifluoromethyl)benzamide]
≤ 500 nM: IC50 [1] | GI50 [2] | IC50 [3] | IC50 [4]

Cc1ccc(NC(=O)c2cc(-n3cncn3)cc(C(F)(F)F)c2)cc1-c1ccc2c(c1)[nH]c1ncncc12 [Example 24, N-[4-methyl-3-(9H-pyrimido-[4,5-b]indol-7-yl)phenyl]-3-(1H-1,2,4-triazol-1-yl)-5-(trifluoromethyl)benzamide]
≤ 500 nM: IC50 [1] | GI50 [2] | IC50 [3] | IC50 [4]

Cc1ccc(NC(=O)c2cc(N3CCC(O)C3)cc(C(F)(F)F)c2)cc1-c1ccc2c(c1)[nH]c1ncncc12 (stereo not shown) [Example 34, 3-(3-hydroxypyrrolidin-1-yl)-N-[4-methyl-3-(9H-pyrimido-[4,5-b]indol-7-yl)phenyl]-5-(trifluoromethyl)benzamide]
≤ 500 nM: IC50 [1] | GI50 [2] | IC50 [3] | IC50 [4]

Cc1ncc(NC(=O)c2cc(-n3cnc(CO)c3)cc(C(F)(F)F)c2)cc1-c1ccc2c(c1)[nH]c1ncncc12 [Example 75, 3-[4-(hydroxymethyl)-1H-imidazol-1-yl]-N-[6-methyl-5-(9H-pyrimido[4,5-b]indol-7-yl)pyridin-3-yl]-5-(trifluoromethyl)benzamide tris(trifluoroacetate) (salt)]
≤ 500 nM: IC50 [1] | GI50 [2] | IC50 [3] | IC50 [4]

Cc1ccc(NC(=O)c2cc(-n3cnc(CN(C)C)c3)cc(C(F)(F)F)c2)cc1-c1ccc2c(c1)[nH]c1ncncc12 [Example 25, 3-{4-[(dimethylamino)methyl]-1H-imidazol-1-yl}-N-[4-methyl-3-(9H-pyrimido[4,5-b]-indol-7-yl)phenyl]-5-(trifluoro-methyl)benzamide]
≤ 500 nM: IC50 [1] | GI50 [2] | IC50 [3] | IC50 [4]

Cc1ccc(NC(=O)c2cc(-n3cnc(CO)c3)cc(C(F)(F)F)c2)cc1-c1ccc2c(c1)[nH]c1ncncc12 [Example 21, 3-[4-(Hydroxymethyl)-1H-imidazol-1-yl]-N-[4-methyl-3-(9H-pyrimido[4,5-b]indol-7-yl)phenyl]-5-(trifluoromethyl)benzamide bis(trifluoroacetate) (salt)]
≤ 500 nM: IC50 [1] | GI50 [2] | IC50 [3] | IC50 [4]

Cc1ccc(NC(=O)c2cc(C(F)(F)F)ccn2)cc1-c1ccc2c(c1)[nH]c1ncncc12 [Example 18, N-[4-methyl-3-(9H-pyrimido[4,5-b]indol-7-yl)-phenyl]-4-(trifluoromethyl) pyridine-2-carboxamide]
≤ 500 nM: IC50 [1] | GI50 [2] | IC50 [3] | IC50 [4]

COc1ccc(C(=O)Nc2ccc(C)c(-c3ccc4c(c3)[nH]c3ncncc34)c2)cc1C(F)(F)F [Example 10, 4-methoxy-N-[4-methyl-3-(9H-pyrimido[4,5-b]indol-7-yl)-phenyl]-3-(trifluoromethyl)-benzamide]
≤ 500 nM: IC50 [1] | GI50 [2] | IC50 [3] | IC50 [4]

CNCc1cn(-c2cc(C(=O)Nc3ccc(C)c(-c4ccc5c(c4)[nH]c4ncncc45)c3)cc(C(F)(F)F)c2)cn1 [Example 22, 3-4-[(Methylamino)methyl]-1H-imidazol-1-yl-N-[4-methyl-3-(9H-pyrimido[4,5-b]-indol-7-yl)phenyl]-5-(trifluoromethyl)benzamide tris(trifluoroacetate)]
≤ 500 nM: IC50 [1] | GI50 [2] | IC50 [3] | IC50 [4]

Cc1ncc(NC(=O)c2cc(NCCN(C)C)cc(C(F)(F)F)c2)cc1-c1ccc2c(c1)[nH]c1ncncc12 [Example 76, 3-[2-(dimethylamino)ethyl]amino-N-[6-methyl-5-(9H-pyrimido[4,5-b]indol-7-yl)pyridin-3-yl]-5-(trifluoromethyl)benzamide tris(trifluoroacetate)]
≤ 500 nM: IC50 [1] | GI50 [2] | IC50 [3] | IC50 [4]

Cc1ccc(NC(=O)c2ccc(F)c(C(F)(F)F)c2)cc1-c1ccc2c(c1)[nH]c1ncncc12 [Example 4, 4-fluoro-N-[4-methyl-3-(9H-pyrimido[4,5-b]indol-7-yl)-phenyl]-3-(trifluoromethyl)benzamide]
≤ 500 nM: IC50 [1] | GI50 [2] | IC50 [3] | IC50 [4]

Cc1ccc(NC(=O)c2cc(N3CCC(N(C)C)C3)cc(C(F)(F)F)c2)cc1-c1ccc2c(c1)[nH]c1ncncc12 (stereo not shown) [Example 37, 3-[3-(dimethylamino)-pyrrolidin-1-yl]-N-[4-methyl-3-(9H-pyrimido[4,5-b]indol-7-yl)phenyl]-5-(trifluoromethyl)-benzamide]
≤ 500 nM: IC50 [1] | GI50 [2] | IC50 [3] | IC50 [4]

Cc1ccc(NC(=O)c2cc(NCCCn3ccnc3)cc(C(F)(F)F)c2)cc1-c1ccc2c(c1)[nH]c1ncncc12 [Example 35, 3-{[3-(1H-imidazol-1-yl)-propyl]amino}-N-[4-methyl-3-(9H-pyrimido[4,5-b]indol-7-yl)phenyl]-5-(trifluoromethyl)-benzamide]
≤ 500 nM: IC50 [1] | GI50 [2] | IC50 [3] | IC50 [4]

Cc1ccc(NC(=O)c2cc(N3CCC(O)CC3)cc(C(F)(F)F)c2)cc1-c1ccc2c(c1)[nH]c1ncncc12 [Example 29, 3-(4-hydroxypiperidin-1-yl)-N-[4-methyl-3-(9H-pyrimido[4,5-b]indol-7-yl)phenyl]-5-(trifluoromethyl)benzamide]
≤ 500 nM: IC50 [1] | GI50 [2] | IC50 [3] | IC50 [4]

Cc1ccc(NC(=O)c2cc(NCCCN(C)C)cc(C(F)(F)F)c2)cc1-c1ccc2c(c1)[nH]c1ncncc12 [Example 33, 3-{[3-(dimethylamino)propyl]-amino}-N-[4-methyl-3-(9H-pyrimido[4,5-b]indol-7-yl)-phenyl]-5-(trifluoromethyl)-benzamide]
≤ 500 nM: IC50 [1] | GI50 [2] | IC50 [3] | IC50 [4]

Cc1ccc(NC(=O)c2cc(C(F)(F)F)cc(Cl)c2F)cc1-c1ccc2c(c1)[nH]c1ncncc12 [Example 8, 3-chloro-2-fluoro-N-[4-methyl-3-(9H-pyrimido[4,5-b]-indol-7-yl)phenyl]-5-(trifluoro-methyl)benzamide]
≤ 500 nM: IC50 [1] | GI50 [2] | IC50 [3] | IC50 [4]

Cc1ccc(NC(=O)c2cc(N3CCCC(O)C3)cc(C(F)(F)F)c2)cc1-c1ccc2c(c1)[nH]c1ncncc12 (stereo not shown) [Example 30, 3-(3-hydroxypiperidin-1-yl)-N-[4-methyl-3-(9H-pyrimido[4,5-b]indol-7-yl)phenyl]-5-(trifluoromethyl)benzamide]
≤ 500 nM: IC50 [1] | GI50 [2] | IC50 [3] | IC50 [4]
